The source of these data is ChEMBL document CHEMBL5053530, “Neopetrosidines A-D, pyridine alkaloids isolated from the marine sponge Neopetrosia chaliniformis and their cell cycle elongation activity” (Bioorg Med Chem, 2021).

As a reminder, the IC50 is the concentration that inhibits the measured activity by half.

SMILES strings stand for the structures. Active and inactive are the calls of the source. The rule behind the calls is not given here.

The nature of experiment [1]: Effect on glycolysis in human HeLa/Fucci2 cells assessed as increase in lactate production per ug protein at 0.1 uM incubated for 24 hrs by LDH Assay (reference value: 19.6 +/- 6.2 nmol). The format is functional.
Experiment [2] deals with HeLa/Fucci2. Nature of the experiment: Cytotoxicity against human HeLa/Fucci2 cells assessed as reduction in cell growth measured after 3 days by MTT assay. The format is functional, cell-based. Particulars: HeLa/Fucci2, 72 h.
The test system of experiment [3] is HeLa/Fucci2. Nature of the experiment: Induction of cell cycle duration in human HeLa/Fucci2 cells assessed as increase in G1 phase duration measured every 20 mins for 96 hrs by time-lapse imaging analysis. The format is functional, cell-based. Particulars: dose 1.25-10 µM.
Experiment [4] deals with HeLa/Fucci2. Nature of the experiment: Induction of cell cycle duration in human HeLa/Fucci2 cells assessed as increase in G1/S phase duration measured every 20 mins for 96 hrs by time-lapse imaging analysis. The format is functional, cell-based. The note with it: dose 1.25-10 µM.
The test system of experiment [5] is HeLa/Fucci2. Nature of the experiment: Induction of cell cycle duration in human HeLa/Fucci2 cells assessed as increase in S/G2/M phase duration measured every 20 mins for 96 hrs by time-lapse imaging analysis. The format is functional, cell-based. The note with it: dose […].
Experiment [6] relates to HeLa/Fucci2. Nature of the experiment: Antiproliferative activity against human HeLa/Fucci2 cells assessed as reduction in cell viability incubated for 48 hrs under glucose-limiting condition by LDH assay. The format is functional, cell-based.
Experiment [7] in a line: Induction of cell cycle duration in human HeLa/Fucci2 cells assessed as increase in S/G2/M phase duration at 5 uM measured every 20 mins for 96 hrs by time-lapse imaging analysis (reference value: 7.1 +/- 0.7 hrs). The format is functional.
Experiment [8] can be described thus: Induction of cell cycle duration in human HeLa/Fucci2 cells assessed as increase in G1 phase duration at 5 uM measured every 20 mins for 96 hrs by time-lapse imaging analysis (reference value: 5 +/- 0.8 hrs). The format is functional.
Experiment [9] relates to HeLa/Fucci2. Nature of the experiment: Antiproliferative activity against human HeLa/Fucci2 cells reduction in cellular ATP production incubated for 4 hrs by CellTiter-Glo cell viability assay. The format is functional, cell-based. The note with it: dose 1.3-5 µM. In general terms: Cellular ATP, detected with luciferase, serves as a proxy for viable cell number.
Experiment [10] can be described thus: Induction of cell cycle duration in human HeLa/Fucci2 cells assessed as increase in G1/S phase duration at 5 uM measured every 20 mins for 96 hrs by time-lapse imaging analysis (reference value: 4.8 +/- 0.3 hrs). The format is functional.
Experiment [11] has as its system HeLa. Nature of the experiment: Induction of mitochondria membrane potential loss in human HeLa cells at 5 uM measured after 1 hr by JC1 dye based fluorescence microscopic analysis. The format is functional, cell-based.
The nature of experiment [12]: Effect on glycolysis in human HeLa/Fucci2 cells assessed as increase in lactate production per ug protein at 5 uM incubated for 24 hrs by LDH Assay (reference value: 19.6 +/- 6.2 nmol). The format is functional.

On to `C=C(C)[C@H]1Cc2c(ccc3c2O[C@@H]2COc4cc(OC)c(OC)cc4[C@@H]2C3=O)O1` [ROTENONE], for which the Activity in experiment [1] turned out to be 34.5 nmol.

On to `C1=C\CCCCCC[n+]2cccc(c2)CCCCCC/C=C\CCCCCC[n+]2cccc(c2)CCCCCCCC/1`, for which the IC50 in experiment [2] was found to be 2.6 µM.

On to `C1=C\CCCCCCc2ccc[n+](c2)CCCCCC/C=C\CCCCCCc2ccc[n+](c2)CCCCCCCC/1`, for which the IC50 in experiment [2] came out at 2.6 µM.

For the compound `C1=C\CCCCCC[n+]2cccc(c2)CCCCCCCCCCCCCC[n+]2cccc(c2)CCCCCC/1.O=C[O-].O=C[O-]`, the Activity result in experiment [3] was “Dose-dependent effect”; in experiment [4] it was “Dose-dependent effect”; in [5] it was “Dose-dependent effect”; in experiment [9], “Dose-dependent effect”; in experiment [12], 27.9 nmol. The result in experiment [6] and in experiment [11] was Active. The IC50 in [2] came to 1.2 µM. The values for the Time in experiment [7], in experiment [8] and in [10] were 14.7 h, 12 h and 9.3 h, respectively.

`C1=C\CCCCCC[n+]2cccc(c2)CCCCCC/C=C\CCCCCC[n+]2cccc(c2)CCCCCC/1`: the IC50 in [2] was 2.4 µM.
